Read-outs that look alike come from different tables or passages of the source.
Assays:
[1] = tested on: hippocampal network activity; details: cited from earlier work
APP^L/S mice [2] = assay: APP immunolabeling for dystrophic neurites and Thioflavin S staining for amyloid plaques in hippocampus; format: in vivo; details: APP^L/S mice given vehicle or LM11A-31; transgenic mouse model of AD
APP/PS1 mice = assay: LTP in the hippocampus; format: in vivo, mouse; details: APP/PS1-vehicle vs. APP/PS1-LM11A-31, p=0.02, wt-vehicle vs. wt-LM11A-31, NS
APPL/S mice = assay: Object recognition test; format: in vivo, mouse; details: ANOVA and post-hoc Student-Neuman-Keuls testing
APP^L/S mice [3] = assay: Choline acetyltransferase immunostaining of basal forebrain sections; format: in vivo, mouse; details: APP^L/S mice treated with LM11A-31
Method: Scale bars=25 μm. b, Photomicrograph of choline acetyltransferase-immunostained basal forebrain sections. […] Statistical significance was determined using ANOVA and post-hoc Student-Neuman-Keuls testing.

[4] = 10 μM NBQX and 25 μM D-AP5 applied together, stimulus pulse applied to DG, 400 μm-thick ventral hippocampal slice

## NS(=O)(=O)c1cccc2c1c([N+](=O)[O-])cc1nc(O)c(O)nc12 [NBQX]
[1]; [4]
  VSDI signal: abolished

## COc1ccc(-c2ccc(=N)n(CCCC(=O)O)n2)cc1 [GABAzine]
[1]
  VSDI signal: confirmed signal extinction

## CC[C@H](C)[C@H](N)C(=O)NCCN1CCOCC1 [LM11A-31]
APP^L/S mice [2]
  dystrophic neurites and amyloid plaque formation in the hippocampus: rescued significantly
APP/PS1 mice
  LTP: normalizes LTP
APPL/S mice
  object recognition deficits: prevented object recognition deficits
APP^L/S mice [3]
  length, volume and branching of cholinergic neurites in the basal forebrain: increased length, volume, and branching of cholinergic neurites

## NC(CCCP(=O)(O)O)C(=O)O [D-AP5]
[1]; [4]
  VSDI signal: abolished
